Experimental data taken from article PMC8703934, “Lytic Polysaccharide Monooxygenase from Talaromyces amestolkiae with an Enigmatic Linker-like Region: The Role of This Enzyme on Cellulose Saccharification” (International Journal of Molecular Sciences, 2021).

Legend:
TamAA9A-CBM = target: T1, TamAA9A-CBM (Talaromyces amestolkiae, UniProt A0A364LE17); experiment: spectrophotometric oxidation to coerulignone at […] nm, Michaelis-Menten fit; type: biochemical; conditions: 2 mM H2O2 as co-substrate; copper-saturated enzyme; 100 mM sodium phosphate pH 6; substrate range 1.25-100 mM; printed kcat/Km (0.003) does not match printed kcat and Km
T1 construct: gene BHQ10_010049; native signal peptide (removed); secreted from Pichia pastoris X-33; theoretical 34 kDa, 75-100 kDa glycosylated; copper-saturated; with Beta-glucosidase BGL-2 (CBM1 domain only)
T1 sequence (A0A364LE17 entry or part of it): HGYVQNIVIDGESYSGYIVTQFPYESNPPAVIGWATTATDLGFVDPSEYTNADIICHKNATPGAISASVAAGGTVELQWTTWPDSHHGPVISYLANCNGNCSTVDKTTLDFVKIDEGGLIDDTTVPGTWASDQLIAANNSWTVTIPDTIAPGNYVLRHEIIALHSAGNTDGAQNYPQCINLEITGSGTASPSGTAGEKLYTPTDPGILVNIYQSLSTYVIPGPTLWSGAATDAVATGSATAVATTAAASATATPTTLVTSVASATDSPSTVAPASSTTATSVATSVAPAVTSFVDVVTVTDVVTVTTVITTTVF

TamAA9A-CD = target: T2, TamAA9A-CD (Talaromyces amestolkiae, UniProt A0A364LE17); experiment: as above; type: biochemical; conditions: 2 mM H2O2 as co-substrate; copper-saturated enzyme; 100 mM sodium phosphate pH 6; substrate range 1.25-100 mM
T2 construct: gene BHQ10_010049; native signal peptide (removed), no tag mentioned; secreted from Pichia pastoris X-33; theoretical 24 kDa, about 30 kDa glycosylated; copper-saturated; mature N-terminus HGYVQN from primer
T2 sequence (A0A364LE17 entry or part of it): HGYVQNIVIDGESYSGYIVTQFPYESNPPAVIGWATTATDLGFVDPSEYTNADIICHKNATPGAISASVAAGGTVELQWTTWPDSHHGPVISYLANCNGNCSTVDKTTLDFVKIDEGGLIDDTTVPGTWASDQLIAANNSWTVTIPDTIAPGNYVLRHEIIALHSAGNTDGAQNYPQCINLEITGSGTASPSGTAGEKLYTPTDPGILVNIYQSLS

Km (TamAA9A-CBM): 85.68 ± 0.7 mM
Km (TamAA9A-CD): 87.7 ± 0.7 mM
SMILES: COc1cccc(OC)c1O [2,6-DMP, 2,6-dimethoxyphenol]
